Entries after “also recorded” stand apart in the source; their conditions may differ.
How the values were obtained:
Type in all cases: in vivo
tobacco aphid = assay: effectiveness against tobacco aphid; settings: comparison in words, FIG. 9-11
Procedure: (§1) The chain lengths were systematically varied to determine if the chain length was critical as to the effectiveness as insecticides. The compounds were tested against pear psylla, tobacco hornworms, tobacco aphids and two-spotted spider mites.

two-spotted spider mite = assay: effectiveness against two-spotted spider mite; settings: comparison in words, FIG. 12
Procedure: as §1

pear psylla = assay: kill of pear psylla by polyol esters; settings: comparison in words, FIG. 1, 6, 7
Procedure: as §1

[1] = insecticidal activity, insect not specified; settings: general statement, insect not named

D-Glucitol, decanoate [sorbitol decanoate]
effectiveness against tobacco aphid (tobacco aphid): more effective than xylitol laurate; also recorded: better than a commercially available insecticidal soap product | effectiveness against two-spotted spider mite (two-spotted spider mite): marginally more effective than the others

D-Glucitol, octanoate [sorbitol octanoate]
effectiveness (kill data) on pear psylla (pear psylla): the most effective | effectiveness against tobacco aphid (tobacco aphid): more effective than sorbitol decanoate | effectiveness as insecticide / insecticidal activity [1]: more effective as insecticides

Xylitol decanoate
effectiveness (kill data) on pear psylla (pear psylla): most effective | effectiveness (kill data) on pear psylla (pear psylla; listed as C10 acid ester): the most effective | effectiveness as insecticide / insecticidal activity [1]: the most effective for xylitol

Xylitol dodecanoate [xylitol laurate]
effectiveness against tobacco aphid (tobacco aphid): more effective than xylitol decanoate; also recorded: better than a commercially available insecticidal soap product

sucrose octanoate
effectiveness (kill data) on pear psylla (pear psylla): monoesters that are more effective as insecticides than the diesters and triesters | effectiveness as insecticide / insecticidal activity [1]: the monoesters were more effective as insecticides than the diesters and triesters

sucrose stearate [commercial sucrose stearate product]
effectiveness as insecticide / insecticidal activity [1]: does not have insecticidal activity

— US6419941B1, “Polyol ester insecticides and method of synthesis” (AVA Chemical Ventures L.L.C., priority 2000, dated 2002)
